Here are results for six compounds from patent publication US10624917B2, “Compositions and methods useful for treating or preventing liver diseases or disorders, and promoting weight loss” (YALE UNIVERSITY, priority 2014, dated 2020).

The test system of series [1] is IL-1β production in murine peritoneal macrophages (PECs). The series can be described thus: IL-1β secretion (ELISA) by primed, ATP-pulsed peritoneal macrophages (PECs). The series is classed as cell-based, mouse. As for the experimental part:
(§1) FIGS. 1A-1J illustrate the finding that adenosine stimulates IL-1β production in NLRP3 inflammasome-dependent manner. Murine peritoneal macrophages (PECs) were obtained from wild type (WT) mice (FIGS. 1A-1D, 1F-1I), Il1r−/− (FIG. 1E) or Nlrp3−/−, ASC−/−, P2xr7−/−, or Caspase-1−/− mice (FIG. 1J) and were primed with LPS for 16 hours. FIG. 1A: This was followed by treatment for 1 hour with adenosine (Ad, 100 μM), adenosine deaminase inhibitor (EHNA, 10 μM), adenosine deaminase (ADA, 10 U ml^−1), ATP diphosphohydrolase (Apyrase, 10 U ml^−1), or erythro-9-(2-hydroxy-3-nonyl) adenine (EHNA, 10 μM) (FIGS. 1B, 1F-1J)). Pan adenosine agonist (NECA, 1 μM, 10 μM) (FIGS. 1C, 1E), or (FIGS. 1D, 1I) by NECA for 1 and 6 hours, and were then pulsed with ATP for 20 min. Enzyme-linked immunosobent assay (ELISA) of IL-1β, TNF-α, IL-10 and IFN-γ secretion were measured in cell supernatants after pulsing with ATP for 5 hours (FIGS. 1A, 1C-1E, 1J) or indicated time-course (FIGS. 1B, 1G-1I). LDH assay was performed after pulsing with ATP as indicated time-course (FIG. 1F). Data are expressed as the mean±SD from at least three independent experiments. *p<0.05 determined by Student's t-test.
C57BL/6 mice were purchased from the National Cancer Institute. ASC−/−, Caspase-1−/−, Nlrp3−/− and P2xr7−/− mice have been described (Rock et al., 2010, Annu Rev Immunol. 28:321-42). A2ora2a flox/flox mice and LysMcre mice were purchased from Jackson Laboratories. HIF-1a flox/flox mice were kindly provided by Dr. Ruslan M Medzhitov (Yale University). 7- to 12-week-old males with a variety of genetic manipulations were used in most experiments. The number of mice in each experimental group was chosen based on previous experience with these experimental models. Mouse peritoneal macrophages (PECs) were isolated by peritoneal lavage 3 days after intraperitoneal injection of 4% thioglycollate solution (B2551, Fluka,). Cells were plated at the density of 3×10^6 cells in 12-well dishes and non-adherent cells were removed after 3 h. Cells primed overnight with 100 ng/ml LPS or 10 ng/ml Pam3CSK4 were treated with various chemicals and followed stimulation. Cells were cultured in DMEM medium complemented with 10% FBS, penicillin/streptomycin and L-glutamine. Mouse bone marrow derived macrophages were isolated from bone marrow cells, and were differentiated for 7 days in complete RPMI-1640 medium supplemented with 2 mM L-glutamine, 100 U/ml penicillin, 100 μg/ml streptomycin, 50 μM 2-mercaptoethanol (all from Invitrogen), 10% heat-inactivated FBS and 20 ng/ml M-CSF (PeproTech). Kupffer cells (KC) were isolated by the density gradient separation of Optiprep (Sigma), and then plates were gently washed and media was replenished after seeding cells for 2 hours to raise KC purity.
Primed PECs were both pulsed for 20 min with 5 mM ATP or 10 μM nigericin, and left untreated until culture supernatants were collected. Secretion of IL-1β was determined by enzyme-linked immunoabsorbent assay (ELISA; R&D Systems).
Background: An ELISA detects its analyte on a solid surface through an enzyme-linked reagent.

Series [2] has as its system active caspase-1 / pro-IL-1β in PECs. The series can be described thus: Western blot of caspase-1 and pro-IL-1β in PECs. The series is classed as cell-based, mouse. The settings on record: for CGS21680 induced increase in LPS/ATP induced active caspase-1: LPS/ATP + CGS21680 with inhibitor; for active (cleaved) caspase-1: in response to LPS/ATP. As for the experimental part: FIGS. 2A-2H illustrate the finding that adenosine mediates increase in IL-1β via the A2A receptor and amplifies signal 1 and signal 2 pathways. FIG. 2A: LPS primed PECs were treated with NECA (10 μM) in the presence or absence of […] different adenosine receptor antagonists for A1 (DPCPX, 10 nM), A2A (ZM 241385, 10 μM), A2B (MRS1706, 10 nM), A3 (MRS1523, 5 μM), or their combinations for 1 hour, and pulsed with ATP for 20 min. FIGS. 2A-2B: A2A receptor specific agonist (CGS21680) and antagonist ZM 241385 increase and block IL-1β production respectively. […] FIG. 2D: PEC's from A2A receptor deficient cells have low IL-1β production, which is not increased by NECA and CGS 21680. FIG. 2E: CGS21680 increases induction of Il1b mRNA expression, and this was decreased in A2A receptor deficient cells. FIG. 2F: Loss of the A2A receptor in macrophages results in much lower levels of Il1b protein A expression in response to LPS. FIG. 2G: CGS21680 and […] increases and decreases production of cleaved caspase-1, respectively. FIG. 2H: The production of cleaved caspase-1 is decreased in A2A receptor deficient macrophages. Data are expressed as the mean±SD from at least three independent experiments Immunoblots shown are representative results from at least three independent experiments. p<0.05 determined by Student's t-test.
(§2) FIGS. 3A-3I illustrate the finding that adenosine supersedes LPS induced tolerance and increases IL-1β production by upregulating transcription of pro-IL-1β via cAMP-PKA pathway. PECs were used in all of the following experiments. FIG. 3A: Primed (pri) with LPS (100 ng/ml) for 16 hours followed by stimulation (stim) with LPS (100 ng/ml), or NECA (10 μM) or CGS21680 (10 μM) in the presence or absence of LPS (100 ng/ml) for 6 hours. FIG. 3B: Treated with forskolin for 6 hours as indicated doses with and without LPS priming FIG. 3C: Treated with or without NECA (10 μM), CGS21680 (10 μM) or db-cAMP (200 μM) for 6 hours. FIG. 3D: LPS primed and treated with NECA or CGS21680 in the presence and absence of SQ22536, H89 and PKi. FIG. 3E: Primed with LPS for 16 hours and treated with ATP for 20 min, followed by CGS 21680 in the presence or absence of the adenylyl cyclase and PKA inhibitors SQ22536 and H-89. FIG. 3F: Primed with LPS and treated with or without NECA (10 μM) or db-cAMP (200 μM) for 6 hours. FIG. 3G: Treated with or without CGS21680 (10 μM) for 3 hours, and transcription was stopped by adding […] actinomycin D, and RNA samples collected at indicated times-points. FIG. 3H: LPS primed PECs obtained from wild type or A2AR-cKO mice were stimulated with NECA (10 μM) for 6 hours. The cells were harvested and RNA isolated after each treatment and the gene expression of Il1b and other genes as indicated quantified by real-time PCR using specific primers. FIG. 3I: Primed with LPS for 16 hours and treated with ATP for 20 min, followed by CGS 21680 in the presence or absence of SQ22536 or H-89 Immunoblot analysis of the proIL-1β caspase-1 in cell lysate was performed by specific […] and anti caspase-1 p10 antibodies (FIGS. 3C, 3E-3F, 3I). Data are expressed as the mean±SD from three independent experiments Immunoblots shown are representative results from at least three independent experiments. *p<0.05 determined by Student's t-test.
Liver tissue lysates or PECs were lysed in RIPA buffer (10 mM phosphate buffer pH 7.4, 150 mM NaCl, 1% NP-40, 0.5% sodium deoxycholate, 0.1% SDS) supplemented with complete protease inhibitor cocktail (Roche) and 2 mM dithiothreitol. Lysates were resolved in 4-12% Tris-glycine gradient gels (Invitrogen) and transferred to nitrocellulose (Invitrogen) by electro-blotting. The following antibodies were used: rabbit anti-caspase-1 p10 (SC-514, Santa Cruz), goat anti-mouse IL-1β (BAF401, R&D Systems), Rabbit antimouse HIF-1α (NB100-449, Novus Biologicals, Littleton, Colo.).
On the technique in general: A western blot detects proteins with antibodies after separation by electrophoresis.

For a further series, the system named is PECs. The series can be described thus: LDH release (cell death) assay in PECs. In kind it is cell-based. The conditions noted are these: LPS + ATP treated PECs. As for the experimental part:
as §1, with “Pan adenosine agonist (NECA, 1 μM, 10 μM) (FIGS. 1C, 1E), or (FIGS. 1D, 1I) by NECA for 1 and 6 hours, and were then pulsed with ATP for 20 min.” left out, “LDH assay was performed after pulsing with ATP as indicated time-course (FIG. 1F).” left out
FIGS. 2A-2H illustrate the finding that adenosine mediates increase in IL-1β via the A2A receptor and amplifies signal 1 and signal 2 pathways. […] Data are expressed as the mean±SD from at least three independent experiments Immunoblots shown are representative results from at least three independent experiments. p<0.05 determined by Student's t-test.
(LDH in the medium is a marker of cell lysis.)

Series [3] relates to TNF-α, IL-10 and IFN-γ secretion. As to the kind of experiment: ELISA of other cytokines in PEC supernatants. In kind it is cell-based, mouse. The settings on record: LPS + ATP, adenosine deaminase inhibition. As to the method:
as §1

Series [4] has as its system IL-1β production in murine peritoneal macrophages (PECs). As to the kind of experiment: IL-1β secretion (ELISA) by primed, ATP-pulsed peritoneal macrophages (PECs). The settings on record: CpG-B and ATP. In kind it is cell-based, mouse.
Series [5] relates to Il1b and other genes in PECs. As to the kind of experiment: Quantitative real-time RT-PCR gene expression in PECs. The series is classed as cell-based, mouse. The settings on record: LPS primed PECs, NECA. As for the experimental part:
as §2
FIGS. 9A-9H illustrate changes in expression of cytokines and tissue repair genes in peritoneal macrophages in response to adenosine agonists. LPS naive or LPS primed PECs were stimulated with LPS (100 ng ml^−1), CGS21680 (10 μM) or NECA (10 μM) at different time points as indicated. The cells were harvested and RNA isolated after each treatment, and the gene expression of ProIL-1β (Il1b) (FIG. 9A), IL-6 (Il6) (FIG. 9B), IL-4 (Il4) (FIG. 9C), TNF-α (tnfa) (FIG. 9D), TIMP-1 (Timp1) (FIG. 9E), VEGF (vegf) (FIG. 9F), PGK-1 (Pgk1) (FIG. 9G), GLUT-1 (Slc2a1) (FIG. 9H) quantified by real-time PCR using each specific gene primer set as listed. Data are expressed as the mean±SD from three independent experiments. *p<0.05 determined by Student's t-test.
Total RNA was extracted using TRIZOL reagent (Invitrogen), and cDNA was generated with an oligo (dT) primer and the Superscript II system (Invitrogen, USA) followed by analysis using LightCycler 480 system (Roche). q-PCR was performed for Il1b using commercial primer-probe sets (Applied Biosystems Inc.) with DNA master Mix (Roche). Expression of GAPDH was used to standardize the samples, and the results were expressed as a ratio relative to control; q-PCR was performed for tnfa, 116, Txnip, Nlrp3, Hif1a, Timp1, using LightCycler 480 SYBR Green I master mix (Roche). Results were normalized based on the expression of β-actin.

Where [6] appears, read: LPS-primed PECs pulsed with ATP.

For the compound `Nc1nc(NCCc2ccc(O)cc2)nc2nc(-c3ccco3)nn12` [ZM241385], the “NECA-increased IL-1β production” value in series [1] (LPS + ATP + NECA with receptor antagonist) was “inhibited”. The “IL-1β production stimulated by CGS21680, NECA and EHNA” value in series [1] (LPS + ATP with antagonist) is “inhibited”. In addition, the IL-1β production result in series [1] (setting [6]) is given as “block”. In series [2], the “CGS21680 induced increase in LPS/ATP induced active caspase-1” value is listed as “inhibited”. For the same compound, the “active (cleaved) caspase-1” value in series [2] is on record as “decreased”; in series [2] (listed as ZM241395), “decreases”.
For the compound `CCCC(=O)Nc1ncnc2c1ncn2[C@@H]1O[C@@H]2COP(=O)([O-])O[C@H]2[C@H]1OC(=O)CCC.[Na+]` [db-cAMP, N6,2′-O-Dibutyryladenosine 3′,5′-cyclic monophosphate sodium salt], in series [2] (6 hours, FIG. 3C), the “up-regulation of Pro-IL-1β” value is reported as “induced up-regulation”. Besides, the pro-IL1β protein levels entry in series [2] (cells from A2AR-cKO mice) is reported as “increase”.
With `CCCCCC[C@@H]([C@@H](C)O)n1cnc2c(N)ncnc21` (racemic) [EHNA, erythro-9-(2-hydroxy-3-nonyl) adenine], the “IL-1β production, time course” value in series [1] (LPS + ATP, time course) is on record as “sustained increase”. In addition, the figures for the IL-1β production entry in series [1] (setting [6]), in series [1] (in the absence of either LPS or ATP) and in series [4] were “significant increase”, “did not result in any detectable IL-1β” and “increase”, respectively. Moreover, in series [1] (macrophages lacking caspase-1, NLRP3, ASC or P2x7 receptor), the “IL-1β production by LPS and ATP” value is given as “did not result in significant production of IL-1β”. Besides, the “LDH (lactate dehydrogenase) release, cell death” value with PECs was “did not show correlation with the secretion of IL-1β”. Besides, the “production of IFN-γ” value in series [3] is on record as “increase”. Also, the “production of IL-10” value in series [3] was “no effect”. In series [3], the “production of TNF-α” value was “reduction”.
Regarding `O=S(=O)(NCCNC/C=C/c1ccc(Br)cc1)c1cccc2cnccc12` [H-89], in series [1] (with PKA inhibition), the “IL-1β production in response to NECA and CGS21680” value is given as “significantly reduced”. For the same compound, the “CGS21680 induced increase in LPS/ATP induced active caspase-1” value in series [2] is given as “reduced”.
On to `COC(=O)c1ccc(O)c(NC(=O)COc2ccc(C34CC5CC(CC(C5)C3)C4)cc2)c1` [CAY10585], for which the “adenosine agonist induced IL-1β production” value in series [1] (LPS primed PECs, ATP pulse) is on record as “significantly decrease”. Further, the “adenosine agonist induced Il1b expression” value in series [5] was “significantly decrease”.
As to `Nc1ncnc2c1ncn2C1CCCO1` (centres unmarked) [SQ22536], the “increase in IL-1β induced by CGS21680 and EHNA” value in series [1] (with adenylate cyclase inhibitor) is “block”. The “CGS21680 induced increase in LPS/ATP induced active caspase-1” value in series [2] was “reduced”.
